Literature values as cited in patent publication US20050287587A1, “Production of glycosylated macrolides in E. coli” (The Board of Trustees of the Leland Stanford Junior …, priority 2002, published 2005).

Settings: general background statement, no strain or method given

CC[C@H]1OC(=O)[C@H](C)[C@@H](O)[C@H](C)[C@@H](O)[C@@H](C)C[C@@H](C)C(=O)[C@H](C)[C@@H](O)[C@H]1C [6-deoxyerythronolide B]
antibacterial activity: no antibacterial activity
